# Measurements: patent publication US8795738B2, “Use of arsenic for cancer therapy protection” (Board of Regents of the University of Texas System, priority 2009, dated 2014)
# “Also recorded” adds a separate entry of the source. Structures can show the parent of a compound that is named as a salt. Where two headings read alike, the source gives them in different places. *1 amine or outer side, *2 acyl side, *3 side chain or, on linkers, in order; H or OH if unused. Where a SMILES comes first, the peptide text is derived from it. Bridges are numbered along the chain shown (N, C = ends). Roman numbers before positions name the chains, in order. [ ]: non-standard residue; d: D form. Actinocin(9to1) = Cc1c2oc3c(C)ccc(C(=O)[*:1])c3nc-2c(C(=O)[*:2])c(N)c1=O; NMeV = CN[C@H](C(=O)O)C(C)C; Sar = CNCC(=O)O
# Experiments:
# [1] = test system: Human lung carcinoma cells A549; assay type: in vivo, mice
# [2] = test system: Human breast carcinoma cells, MDA-MB-231; assay type: in vivo, mice
# [3] = mouse, in vivo
# [4] = test system: Human colon carcinoma cells, SW-480; assay type: in vivo, mice
# [5] = mouse, in vivo; remark: listed apart in the source
# [6] = cited from earlier work; for absorption: oral / gastrointestinal absorption; for peak concentration in plasma: usual clinical doses
# [7] = cited from earlier work
# [8] = physiological pH; cited from earlier work
# [9] = cited from earlier work; remark: listed apart in the source
# [10] = cited from earlier work; remark: listed apart in the source
# [11] = test system: human adult foreskin keratinocytes; conditions: cited from earlier work
# MCF10A cells = assay type: cell-based, human
# [12] = test system: peripheral blood lymphocytes; set-up: species or system mice; conditions: mouse, in vivo
# [13] = set-up: species or system mice; conditions: mouse, in vivo
# [14] = mouse, in vivo; remark: listed apart in the source
# [15] = mouse, in vivo; remark: listed apart in the source
# p53 [16] = assay type: cell-based
# p53 [17] = assay: C57BL/6 WT and p53 R172P knock-in mice, protection by arsenic (body weight); assay type: in vivo; conditions: p53 mutant (R172P knock-in) mice, in contrast with wild type littermates
# Description: Mutant p53 expressing mouse model was employed to test whether the observed protective effect of arsenic was mediated by p53 inactivation. Black C57BL/6 WT or p53 R172P knock in mice at age of 4-6 weeks old) were obtained from Dr. Lazona. Mice were housed under pathogen-free conditions and maintained on a 12 h light/12 h dark cycle, with food and water supplied ad libitum., mice were randomized into following groups; control; X-ray irradiation only; arsenite and X-ray irradiation. For arsenite pretreatment, mice were fed with water containing sodium arsenite (as 1.0 mg/L) for 3 days. Mice were then irradiated with 2Gy TBI daily for one week. Body weight was monitored throughout the period of the experiment. The numbers are means±SE from two independent experiments with total of 10 mice per group.
# [18] = 5FU 30 mg/kg i.v. daily for one week
compound,measurement,setting,value
"O=c1[nH]cc(F)c(=O)[nH]1 [5FU, Fluorouracil]",tumor volume,[1]; 5FU 30 mg/kg intravenous daily for one week,marked tumor regression
same,tumor volume,[2]; [18],marked tumor regression
same,bone marrow cellularity,[3],Bone marrow cell exhaustion
same,damage to the small intestine (crypt size and morphology),[3],severe damages to the small intestine
same,tumor volume,[4]; [18],marked tumor regression
same,damage to small intestine and bone marrow cells,[5],severe damages to small intestine and bone marrow cells
"Cc1c2oc3c(C)ccc(C(=O)N[C@@H]4C(=O)N[C@H](C(C)C)C(=O)N5CCC[C@H]5C(=O)N(C)CC(=O)N(C)[C@@H](C(C)C)C(=O)O[C@@H]4C)c3nc-2c(C(=O)N[C@@H]2C(=O)N[C@H](C(C)C)C(=O)N3CCC[C@H]3C(=O)N(C)CC(=O)N(C)[C@@H](C(C)C)C(=O)O[C@@H]2C)c(N)c1=O [Actinomycin D] (I: T[dV]P[Sar][NMeV] / II: T[dV]P[Sar][NMeV]; ester I:1-I:C, II:1-II:C; linker I:N-II:N via Actinocin(9to1))",excreted into the urine,[6]; in vivo,10%
same,half-life,[6]; in vivo,about 36 hr
same,part of the dose excreted intact into the bile,[6]; in vivo,Half
same,passage of the blood-brain barrier,[6]; in vivo,does not pass the blood-brain barrier
"CS(=O)(=O)OCCCCOS(C)(=O)=O [Busulfan, 1,4-butanediol dimethanesulfonate]",adults obtaining hematologic remission,[7]; previously untreated chronic myelogenous leukemia,Approximately 90%
"O=C(O)CCCc1ccc(N(CCCl)CCCl)cc1 [Chlorambucil, 4-(bis(2-chlorethyl)amino)benzenebutanoic acid]",absorption,[6],rapidly and completely absorbed
N.N.[Cl][Pt][Cl] [Cisplatin],absorption,[6],not absorbed orally
"COc1cccc2c1C(=O)c1c(O)c3c(c(O)c1C2=O)C[C@@](O)(C(C)=O)C[C@@H]3O[C@H]1C[C@H](N)[C@H](O)[C@H](C)O1 [Daunorubicin, 5,12-Naphthacenedione, (8S-cis)-8-acetyl-10-((3-amino-2,3,6-trideoxy-a-L-lyxo-hexanopyranosyl)oxy)-7,8,9,10-tetrahydro-6,8,11-trihydroxy-10-methoxy hydrochloride]",elimination half-life,[6]; in vivo,about 19 hr
same,secreted into the bile,[6]; in vivo,~40%
same,absorption,[6],poor
"COc1cccc2c1C(=O)c1c(O)c3c(c(O)c1C2=O)C[C@@](O)(C(=O)CO)C[C@@H]3O[C@H]1C[C@H](N)[C@H](O)[C@H](C)O1 [Doxorubicin, 5,12-Naphthacenedione, (8s-cis)-10-((3-amino-2,3,6-trideoxy-a-L-lyxo-hexopyranosyl)oxy)-7,8,9,10-tetrahydro-6,8,11-trihydroxy-8-(hydroxyacetyl)-1-methoxy-hydrochloride]",elimination half-life,[6]; in vivo,about 30 hr
same,excreted into the urine,[6]; in vivo,a few
same,absorption,[6],absorbed poorly
"O=NN(CCCl)C(=O)NC1CCCCC1 [Lomustine, 1-(2-chloro-ethyl)-3-cyclohexyl-1nitrosourea]",tissue levels,"[6]; in vivo, iv",comparable to plasma levels
same,part of radioactivity excreted as degradation products within 24 hours,"[6]; in vivo, po",about half
same,ionisation,[8],relatively unionized
"N[C@@H](Cc1ccc(N(CCCl)CCCl)cc1)C(=O)O [Melphalan, 4-(bis(2-chloroethyl)amino)-L-phenylalanine]",patients with a favorable response,"[7]; multiple myeloma, oral administration",one third to one half
CO[C@@]12[C@H](COC(N)=O)C3=C(C(=O)C(C)=C(N)C3=O)N1C[C@@H]1N[C@@H]12 [Mitomycin],time required to reduce the serum concentration by 50%,[9]; 30 mg bolus injection,17 min
same,dose excreted unchanged in the urine,"[9]; human, in vivo",Approximately 10%
CC[C@]1(O)C[C@@H]2CN(CCc3c([nH]c4ccccc34)[C@@](C(=O)OC)(c3cc4c(cc3OC)N(C)[C@H]3[C@@](O)(C(=O)OC)[C@H](OC(C)=O)[C@]5(CC)C=CCN6CC[C@]43[C@@H]65)C2)C1 [Vinblastine],"half-life of disappearance from plasma after distribution, first",[6]; after intravenous injection,approximately 1 hours
same,"half-life of disappearance from plasma after distribution, second",[6]; after intravenous injection,~20 h
same,excreted into the urine,[6]; in vivo,Approximately 15%
same,plasma protein binding,[6]; in vivo,bind to plasma proteins
same,recovered in the feces after biliary excretion,[6]; in vivo,about 10%
same,absorption,[6],Unpredictable absorption
same,peak concentration in plasma,[6],approximately 0.4 mM
CC[C@]1(O)C[C@H]2CN(CCc3c([nH]c4ccccc34)[C@@](C(=O)OC)(c3cc4c(cc3OC)N(C=O)[C@H]3[C@@](O)(C(=O)OC)[C@H](OC(C)=O)[C@]5(CC)C=CCN6CC[C@]43[C@@H]65)C2)C1 [Vincristine],plasma protein binding,[6]; in vivo,bind to plasma proteins
same,terminal half-life,[6]; multiphasic clearance from the plasma,about 24 hours
same,absorption,[6],Unpredictable absorption
same,peak concentration in plasma,[6],approximately 0.4 mM
COc1cccc2c1C(=O)c1c(O)c3c(c(O)c1C2=O)C[C@@](O)([C@H](C)O)C[C@@H]3O[C@H]1C[C@H](N)[C@H](O)[C@H](C)O1 [daunorubicinol],half-life,[6]; in vivo,about 27 hr
Bleomycin,tissue concentrations,[10]; hematopoietic tissue / bone marrow,low concentrations
same,tissue concentrations,"[10]; skin, lungs, kidneys, peritoneum, lymphatics",high concentrations
same,time to improvement,[7]; Hodgkin's Disease and testicular tumors,≤ 2 weeks
same,time to improvement,[7]; squamous cell cancers,≤ 3 weeks
same,administered dose recovered in the urine as active bleomycin,"[9]; human, in vivo",60% to 70%
same,plasma or serum terminal elimination half-life,"[9]; patients with creatinine clearance <35 mL per minute, as creatinine clearance decreases",increases exponentially
same,serum or plasma terminal elimination half-life,[9]; patients with creatinine clearance >35 mL per minute,approximately 115 minutes
sodium arsenite [arsenic],effect of arsenic pretreatment on 5FU-induced tumor suppression,"[1]; mouse, in vivo",little effect
same,effect of arsenic pretreatment on irradiation-induced tumor suppression,"[1]; mouse, in vivo",little effect
same,growth of the implant tumors,"[1]; mouse, in vivo",did not have any detectable effect
same,effect of arsenic pretreatment on 5FU-induced tumor suppression,"[2]; mouse, in vivo",little effect
same,cell proliferation (with enhanced NF-κB and AP-1 activity),[11],induced proliferation
same,cell viability,[11],statistically significant decrease of cell viability
same,5FU-induced body weight loss after arsenic pretreatment,[3],almost completely prevented
same,5FU-induced decrease of bone marrow cellularity after arsenic pretreatment,[3],considerably alleviated
same,5FU-induced small intestine damage after arsenic pretreatment,[3],significantly ameliorated
same,body weight,[3],little loss of body weight
same,effect of arsenic pretreatment on 5FU-induced tumor suppression,"[4]; mouse, in vivo",little effect
same,growth of the implanted tumors,"[4]; mouse, in vivo",did not have any detectable effect
same,reversibility of p53 inhibition,MCF10A cells,transient and can be completely reversed
same,time after arsenic removal until radiation-induced p53 activation is almost completely recovered,MCF10A cells,7 days
same,time in arsenic-free media until radiation-induced p53 activation is detectable,MCF10A cells,5 days
same,day of complete return to untreated level of radiation-induced p53 accumulation and p21 expression,[12],9 days
same,day of partial recovery of radiation-induced p53 accumulation and p21 expression,[12],7 days
same,radiation-induced p53 accumulation and p21 expression,[12],suppressed
same,reversibility of p53 suppression,[12],temporary and reversible
same,duration of pretreatment adequate for optimal protection,[13],3 days
same,protection (body weight),[13],a protection less than 3-day pretreatment; also recorded: no further increase of benefits
same,5FU-induced body weight loss after arsenic pretreatment,[14],almost completely prevented
same,p53-dependent tissue damages induced by 5FU,[15],significantly blunted
same,body weight,[5],little loss of body weight
same,damage to small intestine and bone marrow cells after arsenic pretreatment,[5],significantly inhibited
same,therapy-induced body weight loss after arsenic pretreatment,[5],effectively prevented
same,Hdm2 expression and p53 localisation,p53 [16],upregulation of Hdm2 and accumulation of p53 in the cytoplasm
same,p53 response to genotoxic stress,p53 [16],impaired p53 activation and apoptosis
same,protection against therapy-induced toxicity,p53 [17],little protection
